One series concerns RAW-Lucia ISG. Description: Potency index, ratio of 1-(6,7-dichloro-9-(1-methyl-1H-pyrazol-3-yl)-1,3,4,5-tetrahydro-2H-pyrido[4,3-b]indol-2-yl)-2-hydroxyethan-1-one IC50 to test compound IC50 for inhibition of dsDNA-induced cGAS signaling pathway in mouse RAW-Lucia ISG cells preincubated with compound for 24 hrs followed by HT-DNA addition and measured after 24 hrs by QUANTI-Luc luciferase reagent based assay. It counts as cell-based. The following applies: time 48.0 hrs.

Series [1] relates to THP-1. Description: Downregulation of IFNB mRNA expression level in HSV-1-induced human THP-1 cells at 20 uM preincubated with compound for 12 hrs followed by HSV1 addition and measured after 8 hrs by RT-qPCR analysis. It counts as functional, cell-based. Particulars: time 20.0 hrs.
A short description of series [2]: Cytotoxicity against mouse RAW-Lucia ISG cells assessed as reduction in cell viability upto 60 uM incubated for 48 hrs by CCK8 assay. Type of series: toxicity, cell-based. For orientation: Tetrazolium dyes change colour on reduction, which living cells bring about.
Series [3] deals with T1, Protein cereblon/Cyclic GMP-AMP synthase (Mus musculus) (UniProt Q8C6L5+Q8C7D2). Description: In vivo inhibition of cGAS signaling pathway in DSS-induced ulcerative colitis C57BL/6 mouse model assessed as reduction in IRF3 phosphorylation level in colon preadministered with DSS for 7 days followed by replacement with ultrapure water for 3 days with subsequent intraperitoneal compound administration starting from day 4 to 10 and measured on day 11 by Western blot analysis. It counts as functional, organism-based. The following applies: dose 20-50 mg/kg/day, route ip, time 8.0 day. In general terms: Immunoblotting shows a protein as a band on a membrane.
T1 sequence (Q8C6L5 whole entry, looked up): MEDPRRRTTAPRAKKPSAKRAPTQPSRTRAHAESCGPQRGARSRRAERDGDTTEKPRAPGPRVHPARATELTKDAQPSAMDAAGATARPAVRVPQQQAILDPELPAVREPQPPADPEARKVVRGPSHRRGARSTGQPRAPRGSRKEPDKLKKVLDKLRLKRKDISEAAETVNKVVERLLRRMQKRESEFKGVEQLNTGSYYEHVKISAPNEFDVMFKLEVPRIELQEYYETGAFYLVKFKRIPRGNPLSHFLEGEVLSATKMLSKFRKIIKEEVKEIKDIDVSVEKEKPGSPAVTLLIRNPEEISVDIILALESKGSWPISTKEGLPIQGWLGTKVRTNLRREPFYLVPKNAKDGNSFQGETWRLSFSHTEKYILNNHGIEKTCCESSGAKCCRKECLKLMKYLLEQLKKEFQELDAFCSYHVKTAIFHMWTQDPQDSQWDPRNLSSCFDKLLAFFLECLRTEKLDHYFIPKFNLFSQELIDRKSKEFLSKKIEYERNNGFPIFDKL
T1 sequence (Q8C7D2 whole entry, looked up): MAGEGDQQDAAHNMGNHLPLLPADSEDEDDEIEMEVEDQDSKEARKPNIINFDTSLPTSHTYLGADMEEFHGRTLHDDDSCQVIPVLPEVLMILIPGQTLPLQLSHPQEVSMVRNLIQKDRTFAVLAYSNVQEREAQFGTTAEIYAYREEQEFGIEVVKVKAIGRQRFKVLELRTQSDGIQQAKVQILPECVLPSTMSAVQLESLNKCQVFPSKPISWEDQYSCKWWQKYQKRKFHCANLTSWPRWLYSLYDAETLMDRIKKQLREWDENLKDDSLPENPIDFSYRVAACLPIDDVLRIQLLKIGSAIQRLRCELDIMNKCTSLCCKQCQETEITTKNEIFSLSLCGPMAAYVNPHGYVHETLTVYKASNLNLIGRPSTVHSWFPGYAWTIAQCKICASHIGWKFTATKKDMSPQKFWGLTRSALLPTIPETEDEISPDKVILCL

Series [4] is described as follows: Volume of distribution in male C57BL/6 mouse at 1 mg/kg, iv measured after 24 hrs by LC-MS/MS analysis. It counts as ADME, organism-based. Particulars: in vivo.
The target of series [5] is T1, Protein cereblon/Cyclic GMP-AMP synthase (Mus musculus). Description: In vivo inhibition of cGAS signaling pathway in DSS-induced ulcerative colitis C57BL/6 mouse model assessed as reduction in TBK1 phosphorylation level in colon preadministered with DSS for 7 days followed by replacement with ultrapure water for 3 days with subsequent intraperitoneal compound administration starting from day 4 to 10 and measured on day 11 by Western blot analysis. Type of series: functional, organism-based. Particulars: dose 20-50 mg/kg/day, route ip, time 8.0 day.

For series [6], the system named is THP-1. Description: Inhibition of cGAMP production in human THP-1 cells at 5 to 20 uM preincubated with compound for 36 hrs followed by HT-DNA addition and measured after 6 hrs by LC-MS analysis. The following applies: dose 5-20 µM, time 42.0 hrs. Type of series: functional, cell-based.
The next series has as its system RAW264.7. Description: Upregulation of IFNB mRNA expression level in mouse Trex1-/- RAW264.7 cells at 5 to 20 uM incubated for 24 hrs by qRT-PCR analysis. Type of series: functional, cell-based. The following applies: dose 5-20 µM. A general note: Real-time PCR tracks product formation cycle by cycle.
In series [7] the test system is Mus musculus. Description: Anti-inflammatory activity in DSS-induced ulcerative colitis C57BL/6 mouse model assessed as reduction in histopathological score of colon at 20 to 50 mg/kg/day, ip preadministered with DSS for 7 days followed by replacement with ultrapure water for 3 days with subsequent compound administration starting from day 4 to 10 and measured on day 11. Type of series: functional, organism-based. The following applies: dose 20-50 mg/kg/day, time 8.0 day.

For series [8], the system named is Mus musculus. Description: Anti-inflammatory activity in DSS-induced ulcerative colitis C57BL/6 mouse model assessed as improvement in colon pathology at 20 to 50 mg/kg/day, ip preadministered with DSS for 7 days followed by replacement with ultrapure water for 3 days with subsequent compound administration starting from day 4 to 10 and measured on day 11 by H and E staining based analysis. Type of series: functional, organism-based. Particulars: dose 20-50 mg/kg/day, time 8.0 day.

Series [9] deals with THP-1. Description: Cytotoxicity against human THP-1 cells assessed as reduction in cell viability upto 60 uM incubated for 48 hrs by CCK8 assay. Type of series: toxicity, cell-based. Particulars: thp-1, 48 h.
Series [10] is described as follows: Cmax in male C57BL/6 mouse at 20 mg/kg, ip measured after 24 hrs by LC-MS/MS analysis. It counts as ADME, organism-based. Particulars: in vivo.
For series [11], the target named is T1, Protein cereblon/Cyclic GMP-AMP synthase (Mus musculus). Description: In vivo inhibition of cGAS signaling pathway in DSS-induced ulcerative colitis C57BL/6 mouse model assessed as reduction in STING phosphorylation level in colon preadministered with DSS for 7 days followed by replacement with ultrapure water for 3 days with subsequent intraperitoneal compound administration starting from day 4 to 10 and measured on day 11 by Western blot analysis. It counts as functional, organism-based. Particulars: dose 20-50 mg/kg/day, route ip, time 8.0 day.

Series [12] deals with T2, Protein cereblon/Cyclic GMP-AMP synthase (Homo sapiens, UniProt Q96SW2+Q8N884). In words: PROTAC activity at CRBN/cGAS in human THP-1 cells assessed as induction of cGAS degradation preincubated with compound for 40 hrs followed by HT-DNA stimulation and measured after 8 hrs by Western blot analysis. Type of series: cell-based.
For series [13], the target named is T2, Protein cereblon/Cyclic GMP-AMP synthase. In words: PROTAC activity at CRBN/cGAS in human THP-1 cells assessed as induction of cGAS degradation by measuring maximal efficacy at 20 uM preincubated with compound for 40 hrs followed by HT-DNA stimulation and measured after 8 hrs by Western blot analysis relative to control. Type of series: cell-based. The following applies: time 48.0 hrs.
Target sequence in this assay (Q8N884 whole entry, looked up): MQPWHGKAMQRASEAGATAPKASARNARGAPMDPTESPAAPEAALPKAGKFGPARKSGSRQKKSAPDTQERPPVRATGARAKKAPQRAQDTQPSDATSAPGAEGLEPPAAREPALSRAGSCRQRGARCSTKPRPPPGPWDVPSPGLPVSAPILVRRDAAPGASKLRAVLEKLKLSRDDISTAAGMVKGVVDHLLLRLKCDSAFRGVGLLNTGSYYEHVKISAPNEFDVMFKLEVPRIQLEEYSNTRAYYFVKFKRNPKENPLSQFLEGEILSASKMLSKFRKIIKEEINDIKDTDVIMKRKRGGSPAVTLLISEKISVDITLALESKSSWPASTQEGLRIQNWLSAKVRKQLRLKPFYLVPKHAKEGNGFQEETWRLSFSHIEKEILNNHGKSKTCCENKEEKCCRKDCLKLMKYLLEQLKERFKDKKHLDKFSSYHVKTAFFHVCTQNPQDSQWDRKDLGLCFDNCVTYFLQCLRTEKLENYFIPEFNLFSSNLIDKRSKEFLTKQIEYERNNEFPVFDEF
Target sequence in this assay (Q96SW2 whole entry, looked up): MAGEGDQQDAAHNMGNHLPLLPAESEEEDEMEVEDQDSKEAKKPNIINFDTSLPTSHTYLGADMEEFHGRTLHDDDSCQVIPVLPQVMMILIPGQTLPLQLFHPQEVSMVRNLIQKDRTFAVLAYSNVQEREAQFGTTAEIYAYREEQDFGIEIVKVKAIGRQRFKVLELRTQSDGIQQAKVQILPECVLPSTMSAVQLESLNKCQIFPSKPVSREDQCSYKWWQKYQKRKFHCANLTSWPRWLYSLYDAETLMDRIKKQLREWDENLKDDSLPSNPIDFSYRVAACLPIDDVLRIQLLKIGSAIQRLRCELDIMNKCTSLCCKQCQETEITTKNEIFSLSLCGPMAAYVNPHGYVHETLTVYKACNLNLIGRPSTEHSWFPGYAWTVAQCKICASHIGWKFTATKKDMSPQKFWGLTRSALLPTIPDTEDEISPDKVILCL

A short description of series [14]: MRT (0 to 24 hrs) in male C57BL/6 mouse at 20 mg/kg, ip measured after 24 hrs by LC-MS/MS analysis. Type of series: ADME, organism-based. The following applies: in vivo.
A short description of series [15]: Cmax in male C57BL/6 mouse at 1 mg/kg, iv measured after 24 hrs by LC-MS/MS analysis. Particulars: in vivo. Type of series: ADME, organism-based.
Series [16] deals with Mus musculus. In words: Anti-inflammatory activity in DSS-induced ulcerative colitis C57BL/6 mouse model assessed as decrease in body weight loss at 20 to 50 mg/kg/day, ip preadministered with DSS for 7 days followed by replacement with ultrapure water for 3 days with subsequent compound administration starting from day 4 to 10 and measured on day 11. It counts as functional, organism-based. The following applies: dose 20-50 mg/kg/day, time 8.0 day.

Series [17] deals with THP-1. In words: Inhibition of ds-DNA induced cGAS-STING signaling pathway in human THP-1 cells assessed as reduction in IRF3 phosphorylation preincubated with compound for 40 hrs followed by HT-DNA addition and measured after 8 hrs by Western blot analysis. Particulars: dose 0.7-20 µM, time 48.0 hrs. Type of series: cell-based.
Series [18] in a line: Half-life in male C57BL/6 mouse at 20 mg/kg, ip measured after 24 hrs by LC-MS/MS analysis. It counts as ADME, organism-based. Particulars: in vivo.
The nature of series [19]: Half-life in male C57BL/6 mouse at 1 mg/kg, iv measured after 24 hrs by LC-MS/MS analysis. The following applies: in vivo. It counts as ADME, organism-based.

Calls of active or inactive are those of the source. The calls are words filed in the database; no cut-off is given here.

The term Vd denotes a proportionality between amount in the body and measured concentration, not a real space. High values mean wide distribution into tissue, low ones little distribution into tissue. The Cmax is the highest concentration seen after dosing. As usually defined, the DC50 is the concentration giving 50% degradation. What is called Emax is the maximal effect, on the per cent scale that the assay sets. As usually defined, the MRT last is the average time that molecules of a dose stay in the body. What is called half-life is how long it takes for the measured level to halve. Read a high half-life as slow loss.

As for `Cn1ccc(-c2cc(Cl)c(Cl)c3[nH]c4c(c23)CN(C(=O)CNC(=O)CCCC#Cc2cccc3c2CN(C2CCC(=O)NC2=O)C3=O)CC4)n1` (configuration not stated), the Ratio IC50 with RAW-Lucia ISG turned out to be 3. In addition, the outcome with THP-1 [1], in the series with RAW264.7, with Mus musculus [7], in the series with Mus musculus [8] and with Mus musculus [16] was Active. Further, the Activity result in series [2] was “Non-toxic”; with THP-1 [9] it was “Non-toxic”; in [12] (time 48.0 hrs) it was “Dose-dependent-effect”. The inhibition entry (in [3]; in [5]; in series [11]; in the series with THP-1 [17]) was “Dose-dependent-effect” throughout. Besides, the Vd in [4] stood at 8.1 L/kg. In addition, the inhibition entry in the series with THP-1 [6] is “Active”. Besides, the peak concentration (Cmax) in [10] turned out to be 248 ng/mL; in series [15] it was 1610 ng/mL. The half-maximal degradation concentration (DC50) in series [12] was 0.9 µM. Besides, the Emax in series [13] was 94.4%. For the same molecule, in series [14], the MRT last at 24 h turned out to be 7.9 h. Further, the half-life is 13.7 h in [18] and 3 h in series [19].

The values are drawn from ChEMBL document CHEMBL6103619, “Discovery of a Novel CRBN-Recruiting cGAS PROTAC Degrader for the Treatment of Ulcerative Colitis” (J Med Chem, 2025).
